Data taken from patent publication US5945436A, “Pyridylmethyl nitriles, amides and thioamides useful as fungicides” (Uniroyal Chemical Company, Inc., priority 1997, dated 1999).

Tests used:
Rhizoctonia solani = assay: Fungal growth inhibition, treated disc on agar (RHI SOL); type: cell-based; details: disc dipped in 500 mg/l, 29° C.; for inhibition at 500 µg/mL: Rhizoctonia solani, read-out: Percent Growth Inhibition, RHI SOL
Description: Filter paper discs, each 11 mm. in diameter, were dipped in each of the test solutions. The discs were allowed to air dry to drive off the acetone solvent. A number of untreated discs were used as controls.
The treated and untreated discs were then placed on agar plates and one of the following fungus species: Septoria nodorum (SEP NOD), Botrytis cinerea (BOT CIN), Fusarium oxysporum (FUS OXY), Pythium ultimum (PYT ULT), Rhizoctonia solani (RHI SOL), Colletotrichum gossypii (COL GOS), and Scierotinia minor (SCL MIN), was added to the center of each disc in the form of a culture plug with the fungus mat in contact with the paper of the test disc. Cercosporidium personatum (CER PER), was added to discs as a spore suspension (20,000 spores/ml) to the disc (two drops of spore suspension per disc), rather than a mycelial culture plug. The plates were then incubated at 29° C. in an oven.
With the exception of the discs containing Cercosporidium personatum, the discs were evaluated by first measuring the radius from the center of the fungus colony on the treated discs and on the untreated discs. Percent growth inhibition of each of the compounds tested was determined as a function of the difference between the radius of the fungus colony on the treated disc versus the radius of the fungus colony on the untreated disc.

Uromyces phaseoli = assay: Bean rust fungus eradicant test (URO PHA); type: in vivo; details: pinto bean, eradicant spray 2 days after inoculation, 1,000 mg/l; for pest or weed control at 1000 µg/mL: Uromyces phaseoli, 216 h, read-out: Percent Reduction of Disease, URO PHA
Description: Compositions containing Compounds Nos. 1-81 were prepared by dissolving 0.24 grams of each of the compounds in 8 ml of acetone or other suitable inert solvent. Each of the resultant solutions was treated with 3 drops of TWEEN 20 (ethoxylated ethylene sorbitan monolaurate, a non-ionic surfactant)(I.C.I.), and water was added to form an emulsion. The degree of dilution with water was dictated by the desired concentration of the compound in the composition. The greater the quantity of water added, the lower the concentration of the compound in the composition, reported in milligrams per liter (mg/l) A plurality of pots were each planted with two pinto bean plants, Phaseolus vulgaris, each, susceptible to rust disease. When the plants were 7 days old, at the primary leaf stage of growth, they were all sprayed with a suspension containing 20,000 spores of the bean rust fungus, Uromyces phaseoli, per ml. All the pots were then incubated in a controlled environmental chamber, maintained at 99% humidity and 21° C., for 24 hours to allow infection to occur. The plants were then removed from the incubator and allowed to dry. Two days after inoculation each of the infected plants was then either sprayed with one of the compositions of Example 9, at a dosage of 1,000 mg/l, or left unsprayed. The unsprayed plants acted as controls. All of the sprayed and unsprayed plants were then placed in a greenhouse at 21° C. for nine days to allow the disease to develop. […] Control of disease was determined by comparing treated plants with the untreated controls. The results, expressed as percent reduction of disease, are summarized in Table II under the heading "URO PHA".

Erysiphe graminis [1] = assay: Powdery mildew in barley, foliar application (ERY GRA); type: in vivo; details: foliar, 1,000 mg/l, 8 days after inoculation; for pest or weed control at 1000 µg/mL: Blumeria graminis, foliar, 192 h, read-out: Percent Reduction of Disease, ERY GRA
Description: (§1) Compositions containing Compounds Nos. 1-81 were prepared by dissolving 0.24 grams of each of the compounds in 8 ml of acetone or other suitable inert solvent. Each of the resultant solutions was treated with 3 drops of TWEEN 20 (ethoxylated ethylene sorbitan monolaurate, a non-ionic surfactant)(I.C.I.), and water was added to form an emulsion. The degree of dilution with water was dictated by the desired concentration of the compound in the composition. The greater the quantity of water added, the lower the concentration of the compound in the composition, reported in milligrams per liter (mg/l) Ten plants of "Robust" variety barley were planted in each of a plurality of pots. Each pot was then either sprayed with one of the compositions of Example 9, at a composition concentration of 1,000 mg/l, or left unsprayed. For each pot sprayed, one pot was left unsprayed as a control. After the leaves of the sprayed pots were dried, the sprayed pots and the unsprayed control pots were placed in a greenhouse maintained at 21° C. All the pots were then inoculated with barley powdery mildew fungus, Erysiphe graminis. This inoculation was accomplished by distributing spores of the fungus over the leaves of the plants to be tested from plants which had previously been infected with the mildew disease. […] Again, percent control was computed by comparing the treatment scores with the scores of the untreated controls. The results are summarized in Table II under the heading "ERY GRA".

Pythium ultimum = assay: Fungal growth inhibition, treated disc on agar (PYT ULT); type: cell-based; details: disc dipped in 500 mg/l, 29° C.; for inhibition at 500 µg/mL: Globisporangium ultimum, read-out: Percent Growth Inhibition, PYT ULT
Erysiphe graminis [2] = assay: Powdery mildew of barley, systemic root uptake (BMS); type: in vivo; details: 45 ml of 250 mg/l, 8 days after inoculation
Description: Compositions containing Compounds Nos. 1-81 were prepared by dissolving 0.24 grams of each of the compounds in 8 ml of acetone or other suitable inert solvent. Each of the resultant solutions was treated with 3 drops of TWEEN 20 (ethoxylated ethylene sorbitan monolaurate, a non-ionic surfactant)(I.C.I.), and water was added to form an emulsion. The degree of dilution with water was dictated by the desired concentration of the compound in the composition. The greater the quantity of water added, the lower the concentration of the compound in the composition, reported in milligrams per liter (mg/l) […] Upon reaching these ages, the plants were either treated with 45 ml of 250 mg/l concentration of the compositions of Example 9 or were left untreated. The untreated plants were used as controls. The 45 ml compositions saturated the soil of the treated pots without significant loss through drainage into the saucers below the pots. Twenty-four hours after the treatment with the compositions, both the barley and cucumber plants in all the pots, those treated and those untreated, were inoculated with powdery mildew fungus. This was accomplished by tapping leaves of previously infected barley and cucumber plants over the treated and untreated pots containing the barley and cucumber plants, respectively, to distribute spores of the fungus over the plants tested. […] Intermediate ratings were assigned depending on the degree of disease. […] The results of the powdery mildew disease control of barley are reported under the heading of "BMS". The results for cucumber mildew control are reported under the heading "CMS".

Fusarium oxysporum = assay: Fungal growth inhibition, treated disc on agar (FUS OXY); type: cell-based; details: disc dipped in 500 mg/l, 29° C.; for inhibition at 500 µg/mL: Fusarium oxysporum, read-out: Percent Growth Inhibition, FUS OXY
Erysiphe polygoni = assay: Powdery mildew on pinto bean, foliar application (ERY POL); type: in vivo; details: similar procedure as barley (1,000 mg/l); for pest or weed control at 1000 µg/mL: Erysiphe polygoni, read-out: Percent Reduction of Disease, ERY POL
Description: as §1, with “GRA". Using a similar procedure as described above for the barley, pinto bean plants were prepared, treated and inoculated with the fungus Erysiphe polygoni. The results of this testing are summarized in Table II under the heading "ERY POL".” for “GRA".”

| Compound | inhibition at 500 µg/mL (Rhizoctonia solani) | pest or weed control at 1000 µg/mL (Uromyces phaseoli) | pest or weed control at 1000 µg/mL (Erysiphe graminis [1]) | inhibition at 500 µg/mL (Pythium ultimum) | Percent Reduction of Disease, BMS (Erysiphe graminis [2]) | inhibition at 500 µg/mL (Fusarium oxysporum) | pest or weed control at 1000 µg/mL (Erysiphe polygoni) | Percent Growth Inhibition, RHI SOL (Rhizoctonia solani) | Percent Reduction of Disease, URO PHA (Uromyces phaseoli) | Percent Reduction of Disease, ERY GRA (Erysiphe graminis [1]) | Percent Growth Inhibition, PYT ULT (Pythium ultimum) | Percent Growth Inhibition, FUS OXY (Fusarium oxysporum) | Percent Reduction of Disease, ERY POL (Erysiphe polygoni) |
| --- | --- | --- | --- | --- | --- | --- | --- | --- | --- | --- | --- | --- | --- |
| CCCC(C#N)(CCCc1ccccc1Cl)c1cccnc1 (stereo not drawn) [Compound 15, 2-chloro-α-propyl-(3-pyridinyl)benzene pentanenitrile] | 98% | 83% | 100% | 83% | 0% | 95% | 100% | – | – | – | – | – | – |
| CCCCCCC(C#N)(Cc1ccc(C(C)(C)C)cc1)c1cccnc1 (stereo not shown) [Compound 16] | 25% | 0% | 85% | 45% | 0% | 5% | 100% | – | – | – | – | – | – |
| CCCC(C#N)(Cc1ccc(Oc2ccccc2)cc1)c1cccnc1 (stereo not shown) [Compound 17] | 45% | 0% | 70% | 45% | 0% | 60% | 100% | – | – | – | – | – | – |
| C=CCC(C#N)(Cc1ccc(C(C)(C)C)cc1)c1cccnc1 (stereo not shown) [Compound 18] | 40% | 0% | 100% | 40% | 20% | 50% | 100% | – | – | – | – | – | – |
| CCCCC(C#N)(Cc1ccc(C(C)(C)C)cc1)c1cccnc1 (stereo not shown) [Compound 19] | 91% | 0% | 100% | 93% | 35% | 100% | 100% | – | – | – | – | – | – |
| CCCC(C#N)(CCc1ccccc1)c1ccncc1 (stereo not shown) [Compound 25] | 4% | 17% | 67% | 0% | 0% | 63% | 17% | – | – | – | – | – | – |
| CCCCC(C#N)(CCc1ccccc1)c1ccncc1 (stereo not shown) [Compound 26] | 4% | 0% | 50% | 0% | 0% | 59% | 17% | – | – | – | – | – | – |
| C=CCC(C#N)(CCc1ccc(OC)cc1)c1ccccn1 (stereo not shown) [Compound 28] | – | – | – | – | 0% | – | – | 60% | 100% | 90% | 10% | 100% | 100% |
| COc1ccc(CCC(C#N)(CC(C)C)c2ccccn2)cc1 (stereo not shown) [Compound 29] | – | – | – | – | 0% | – | – | 70% | 100% | 100% | 0% | 97% | 100% |
| CCCCCC(C#N)(CCc1ccc(OC)cc1)c1ccccn1 (stereo not shown) [Compound 30] | – | – | – | – | 0% | – | – | 10% | 100% | 100% | 0% | 100% | 100% |
| CCCCC(C#N)(CCc1ccc(OC)cc1)c1ccccn1 (stereo not shown) [Compound 31] | – | – | – | – | 0% | – | – | 5% | 35% | 20% | 93% | 83% | 90% |
| N#CC(CCCc1ccc(Cl)cc1)(CC1CC1)c1ccccn1 (stereo not shown) [Compound 32] | – | – | – | – | 0% | – | – | 0% | 85% | 100% | 0% | 100% | 100% |
| C=CCC(C#N)(CCc1ccc(C)cc1)c1cccnc1 (stereo not shown) [Compound 33] | 0% | 100% | 100% | 50% | 40% | 100% | 100% | – | – | – | – | – | – |
| CCCCC(C#N)(CCc1ccc(OCC)cc1)c1cccnc1 (stereo not shown) [Compound 35] | 40% | – | 85% | – | 0% | – | 100% | – | 90% | – | 0% | 30% | – |
| CCCCCCC(C#N)(CCc1ccc(OC)cc1)c1cccnc1 (stereo not shown) [Compound 36] | 25% | 100% | 85% | 75% | 0% | 80% | 100% | – | – | – | – | – | – |
| COc1ccc(CCC(C#N)(CC2CC2)c2cccnc2)cc1 (stereo not shown) [Compound 37] | 13% | 92% | 92% | 9% | 0% | 100% | 92% | – | – | – | – | – | – |
